The test system of data set [1] is human breast adenocarcinoma cell line, MDA-MB-468. The experiment in a line: Doxorubicin sensitivity of MDA-MB-468 cell line. The conditions noted are these: parental MDA-MB-468. It counts as cell-based.
Data set [2] deals with Caco-2 cell xenograft. The data set is described as follows: Dosing schedule time-course, Caco-2 xenograft, irinotecan (Example 6). The conditions noted are these: free drug, ~2.4×10^5 ng/dose, intravenous. It counts as in vivo, nude mice. On the procedure: Allowing sufficient time for efficient delivery of shRNA to the tumor cells before the receptor-targeted, drug-packaged minicells are administered improves the results. A time-course experiment was performed, wherein ^EGFRminicellsshRNA-MDR-1 were administered intravenously in nude mice carrying Caco-2 cell xenograft. In separate groups (n=11 mice per group), mice were given ^EGFRminicellsIrino either at 96 hr (G3), 120 hr (G4) or 144 hr (G5) after the ^EGFRminicellsshRNA-MDR-1 treatment. G1 and G2 were tumor only and free irinotecan (˜2.4×10^5 ng/dose) controls. The minicells were administered at 5×10^8 per dose and each dose carried ˜80 ng of irinotecan packaged in minicells, which is a 3,000-fold lower dose than that administered as free drug.

Data set [3] relates to Human colon cancer cell line Caco-2. The experiment in a line: MTT cell proliferation assay, reversal of drug resistance in-vitro. Conditions: single treatment; 72 hrs; free drugs 25 μM; MTT read at 490 nm. (Tetrazolium dyes change colour on reduction, which living cells bring about.)
Protocol: Caco-2 cells were seeded at 3×10^6 cells/flask in Minimum Essential Medium with 10% cosmic calf serum and incubated for 3 hours at 37° C., 5% CO2.
The cells were treated with (a) ^EGFRminicellsshRNA-MDR-1, and (b) ^EGFRminicellsshRNA-nonsense. […] Minicells were added at a concentration of 10^10 per flask and all flasks were incubated for 72 hrs. The cells from each treatment were trypsinised and seeded at 1×10^4 cells/ml/well in 24-well plates and were incubated for 3 hrs at 37° C., 5% CO2. The control untreated cells were then incubated with (6 wells/treatment) (a) free irinotecan (25 μM), (b) free 5-FU (25 μM), (c) ^EGFRminicellsIrino, and (d) ^EGFRminicells5-FU.
The ^EGFRminicellsshRNA-MDR-1 treated Caco-2 cells were incubated with (6 wells/treatment) (a) ^CMV minicells5-FU (non-specifically targeted since the bispecific antibody is targeted to a surface protein on cytomegalovirus), (b) free irinotecan, (c) free 5-FU EGFR, (d) ^EGFRminicellsIrino, and (e) ^EGFRminicells5-FU. […]
All cells were incubated for a further 72 hrs followed by the colorimetric MTT cell proliferation assay (Cory et al., 1991) using the CellTiter 96 AQueous One Solution Cell Proliferation Assay (Promega Corp., Madison, Wis., USA), according to the manufacturer's instructions. The colorimetric measurements were read at 490 nm.
The test system of data set [4] is Caco-2 cell xenograft. The data set is described as follows: Dosing schedule time-course, Caco-2 xenograft, 5-FU (Example 7). It counts as in vivo, nude mice. Conditions: free drug, 1×10^6 ng/dose, intravenous. On the procedure:
The experiment described in example 6 was repeated with the same controls and experimental groups except that G2 received free 5-FU (1×10^6 ng/dose) and in G3, G4 and G5, the second treatment was carried out with ^EGFRminicells5-FU. Minicells were administered at 1×10^9 per dose and each dose carried ˜80 ng 5-FU, i.e., ˜12,500-fold lower than free drug administration in G2 mice.

The structures appear in SMILES notation.

With `COc1cccc2c1C(=O)c1c(O)c3c(c(O)c1C2=O)C[C@@](O)(C(=O)CO)C[C@@H]3O[C@H]1C[C@H](N)[C@H](O)[C@H](C)O1` [doxorubicin], in data set [1], the “sensitivity of cell line to drug” value was “highly sensitive”. In the case of `CCc1c2c(nc3ccc(OC(=O)N4CCC(N5CCCCC5)CC4)cc13)-c1cc3c(c(=O)n1C2)COC(=O)[C@]3(O)CC` [irinotecan], in the data set on Caco-2 cell xenograft [2], the “effect on tumor growth (FIG. 5)” value was “no effect”. In addition, the “resistance of Caco-2 cells to treatment (cell viability, FIG. 1)” value in data set [3] is given as “highly resistant”. For the compound `O=c1[nH]cc(F)c(=O)[nH]1` [5-FU, 5-fluorouracil], the “effect on tumor growth (FIG. 6)” value with Caco-2 cell xenograft [4] is recorded as “no effect”.

The values above are taken from US10426736B2, “Delivering functional nucleic acids to mammalian cells via bacterially-derived, intact minicells” (EnGenelC Molecular Delivery Pty. Ltd., priority 2004, dated 2019).
